Literature values, collected in patent US10316097B2, “Method for the treatment of epilepsy, epileptogenesis, seizures or convulsions by an anti-colony-stimulating factor 1 receptor (CSF-1R) antibody” (UCB BIOPHARMA SPRL, priority 2015, dated 2019).

How the values were obtained:
[1] = test system: TNF-α-driven inflammation in the brain; conditions: systemic administration in rodents
[2] = systemic administration in rodents

Substance: etanercept
- Effect on TNF-α-driven inflammation in the brain [1]: does not affect
- Crossing of the blood-brain barrier (BBB) [2]: does not cross the blood-brain barrier
